# Laboratory results taken from patent US20230174484A1, “ANTAGONISTS OF GPR39 PROTEIN” (Oregon Health & Science University, priority 2020, published 2023).
# Target: T1, human GPR39 receptor (Homo sapiens, UniProt O43194)
# T1 construct: PC3 Cells, Expressing the Endogenous Human GPR39 Receptor; endogenous in cells; host or cells: PC3 (human prostate adenocarcinoma) cells
# T1 sequence (O43194 1-453): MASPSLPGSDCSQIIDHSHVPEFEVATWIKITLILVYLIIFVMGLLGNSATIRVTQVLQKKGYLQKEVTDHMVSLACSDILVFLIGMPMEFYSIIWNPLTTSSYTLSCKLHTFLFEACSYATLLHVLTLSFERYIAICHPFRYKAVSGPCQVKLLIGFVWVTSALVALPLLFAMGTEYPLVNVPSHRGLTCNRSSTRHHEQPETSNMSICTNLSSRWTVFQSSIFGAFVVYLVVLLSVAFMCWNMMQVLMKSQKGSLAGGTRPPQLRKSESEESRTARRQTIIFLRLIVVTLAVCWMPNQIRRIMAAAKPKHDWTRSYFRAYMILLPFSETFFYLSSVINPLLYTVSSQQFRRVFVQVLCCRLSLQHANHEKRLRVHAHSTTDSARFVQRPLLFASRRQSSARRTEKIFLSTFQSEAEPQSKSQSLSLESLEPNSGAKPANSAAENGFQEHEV
# Assay: Measurement of intracellular calcium response in PC3 cells (FLIPR), antagonism of the C3 agonist response
# Format: cell-based
# Details: functional pKi (modified Cheng-Prusoff), inhibition of the C3 (TC-G 1008) response at EC90, 30 μM ZnCl2, read-out: fpKi activity
# Procedure, shortened: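 Potency was reported as fpKi, converted by modified Cheng-Prusoff from four-parameter IC50 fits against an EC90 C3 agonist challenge. Calcium-6 FLIPR readings used PC3 cells naturally expressing human GPR39, in pH 7.4 HEPES buffer containing 30 μM final ZnCl2. Score bands: +/± <5.2, + 5.2–5.9, ++ 6.0–6.5, +++ 6.6–7.2, ++++ ≥7.3.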
row,Ki [nM],Structure (SMILES)
1,63.1 to 251,O=C(c1ccc(-c2nnc(C3CC3)[nH]2)cc1N1CCCC1)N1CCC(C(F)(F)F)CC1 [Example 154]
2,63.1 to 251,Cc1ccn(-c2cc(NC(=O)C3CC3)ccc2C(=O)N2CCC(C(F)(F)F)CC2)n1 [Example 156]
3,≤ 50.1,"CCCN1CCN(C(=O)c2ccc(NC(=O)C3CC3)cc2-n2ccc(C(F)(F)F)n2)CC1 [Example 158, N-[4-(4-propylpiperazine-1-carbonyl)-3-[3-(trifluoromethyl)pyrazol-1-yl]phenyl]cyclopropanecarboxamide]"
4,1260 to 6310,"O=C(Nc1ccc(C(=O)N2CCOC(C(F)(F)F)C2)c(N2CCCC2)c1)C1CC1 (stereo not drawn) [Example 166, N-[3-pyrrolidin-1-yl-4-[2-(trifluoromethyl)morpholine-4-carbonyl]phenyl]cyclopropanecarboxamide]"
5,316 to 1000,"O=C(Nc1ccc(C(=O)N2CCC(F)CC2)c(N2CCCC2)c1)C1CC1 [Example 168, N-[4-(4-fluoropiperidine-1-carbonyl)-3-pyrrolidin-1-ylphenyl]cyclopropanecarboxamide]"
6,63.1 to 251,"Cc1cc(C(F)(F)F)nn1-c1cc(NC(=O)C2CC2)ccc1C(=O)N1CCS(=O)(=O)CC1 [Example 178, N-[4-(1,1-dioxo-1,4-thiazinane-4-carbonyl)-3-[5-methyl-3-(trifluoromethyl)pyrazol-1-yl]phenyl]cyclopropanecarboxamide]"
7,≤ 50.1,"CC(C)c1ccn(-c2cc(NC(=O)C3CC3)ccc2C(=O)N2CCS(=O)(=O)CC2)n1 [Example 179, N-[4-(1,1-dioxo-1,4-thiazinane-4-carbonyl)-3-(3-propan-2-ylpyrazol-1-yl)phenyl]cyclopropanecarboxamide]"
8,≤ 50.1,"O=C(Nc1ccc(C(=O)N2CCS(=O)(=O)CC2)c(-n2ccc(C3CC3)n2)c1)C1CC1 [Example 180, N-[3-(3-cyclopropylpyrazol-1-yl)-4-(1,1-dioxo-1,4-thiazinane-4-carbonyl)phenyl]cyclopropanecarboxamide]"
9,≤ 50.1,"O=C(Nc1ccc(C(=O)N2CCS(=O)(=O)CC2)c(-n2ccc(C(F)(F)F)n2)c1)C1CC1 [Example 181, N-[4-(1,1-dioxo-1,4-thiazinane-4-carbonyl)-3-[3-(trifluoromethyl)pyrazol-1-yl]phenyl]cyclopropanecarboxamide]"
10,316 to 1000,"O=C(Nc1ccc(C(=O)N2CCS(=O)(=O)CC2)c(-n2cc(C(F)(F)F)cn2)c1)C1CC1 [Example 182, N-[4-(1,1-dioxo-1,4-thiazinane-4-carbonyl)-3-[4-(trifluoromethyl)pyrazolyl]phenyl]cyclopropanecarboxamide]"
11,63.1 to 251,"O=C(Nc1ccc(C(=O)N2CCS(=O)(=O)CC2)c(N2CCC(F)(F)C2)c1)C1CC1 [Example 184, N-[3-(3,3-difluoropyrrolidin-1-yl)-4-(1,1-dioxo-1,4-thiazinane-4-carbonyl)phenyl]cyclopropanecarboxamide]"
12,316 to 1000,"O=C(Nc1ccc(C(=O)N2CCS(=O)(=O)CC2)c(N2CC3CCC2C3)c1)C1CC1 (stereo not drawn) [Example 187, N-[3-(3-azabicyclo[2.2.1]heptan-3-yl)-4-(1,1-dioxo-1,4-thiazinane-4-carbonyl)phenyl]cycloprooanecarboxamide]"
13,63.1 to 251,"O=C(Nc1ccc(C(=O)N2CCS(=O)(=O)CC2)c(N2CCCC3(CC3)C2)c1)C1CC1 [Example 189, N-[3-(5-azaspiro[2.5]octan-5-yl)-4-(1,1-dioxo-1,4-thiazinane-4-carbonyl)phenyl]cyclopropanecarboxamide]"
14,1260 to 6310,"O=C(Nc1ccc(C(=O)N2CCS(=O)(=O)CC2)c(N2CCCC(F)(F)C2)c1)C1CC1 [Example 191, N-[3-(3,3-difluoropiperidin-1-yl)-4-(1,1-dioxo-1,4-thiazinane-4-carbonyl)phenyl]cyclopropanecarboxamide]"
15,1260 to 6310,"O=C(Nc1ccc(C(=O)N2CCS(=O)(=O)CC2)c(N2CCC(F)(F)CC2)c1)C1CC1 [Example 196, N-[3-(4,4-difluoropiperidin-1-yl)-4-(1,1-dioxo-1,4-thiazinane-4-carbonyl)phenyl]cyclopropanecarboxamide]"
16,1260 to 6310,"CN1CCN(C(=O)c2ccc(NC(=O)C3CC3)cc2N2CCOCC2)C(c2ccccc2)C1 (stereo not drawn) [Example 200, N-[4-(4-methyl-2-phenylpiperazine-1-carbonyl)-3-morpholin-4-ylphenyl]cyclopropanecarboxamide]"

row,Ki [nM],Structure (SMILES)
1,316 to 1000,"CN1CCN(C(=O)c2ccc(NC(=O)C3CC3)cc2N2CCC3(COC3)C2)C(c2ccccc2)C1 (stereo not drawn) [Example 203, N-[4-(4-methyl-2-phenylpiperazine-1-carbonyl)-3-(2-oxa-7-azaspiro[3.4]octan-7-yl)phenyl]cyclopropanecarboxamide]"
2,316 to 1000,"CN1CCN(C(=O)c2ccc(NC(=O)C3CC3)cc2N2CC3(COC3)C2)C(c2ccccc2)C1 (stereo not drawn) [Example 204, N-[4-(4-methyl-2-phenylpiperazine-1-carbonyl)-3-(2-oxa-6-azaspiro[3.3]heptan-6-yl)phenyl]cyclopropanecarboxamide]"
3,63.1 to 251,"CN1CCN(C(=O)c2ccc(NC(=O)C3CC3)cc2N2CC3(CCOC3)C2)C(c2ccccc2)C1 (stereo not drawn) [Example 205, N-[4-(4-methyl-2-phenylpiperazine-1-carbonyl)-3-(6-oxa-2-azaspiro[3.4]octan-2-yl)phenyl]cyclopropanecarboxamide]"
4,63.1 to 251,"CN1CCN(C(=O)c2ccc(NC(=O)C3CC3)cc2-n2ccc(C(F)(F)F)n2)C(c2ccccc2)C1 (stereo not drawn) [Example 206, N-[4-(4-methyl-2-phenylpiperazine-1-carbonyl)-3-[3-(trifluoromethyl)pyrazol-1-yl]phenyl]cyclopropanecarboxamide]"
5,316 to 1000,"CN1CCN(C(=O)c2ccc(NC(=O)C3CC3)cc2-n2cc(C(F)(F)F)cn2)C(c2ccccc2)C1 (stereo not drawn) [Example 207, N-[4-(4-methyl-2-phenylpiperazine-1-carbonyl)-3-[4-(trifluoromethyl)pyrazol-1-yl]phenyl]cyclopropanecarboxamide]"
6,≤ 50.1,Cc1nnc(-c2ccc(C(=O)N3CCC(F)(F)CC3)c(-n3ccc(C(F)(F)F)n3)c2)[nH]1 [Example 208]
7,≤ 50.1,"Cc1nnc(-c2ccc(C(=O)N3CCC(F)(F)CC3)c(-n3ccc(C4CC4)n3)c2)[nH]1 [Example 209, [2-(3-cyclopropylpyrazol-1-yl)-4-(5-methyl-4H-1,2,4-triazol-3-yl)phenyl]-(4,4-difluoropiperidin-1-yl)methanone]"
8,≤ 50.1,"Cc1nnc(-c2ccc(C(=O)N3CCC(F)(F)CC3)c(-n3ccc(C(C)C)n3)c2)[nH]1 [Example 210, (4,4-difluoropiperidin-1-yl)-[4-(5-methyl-4H-1,2,4-triazol-3-yl)-2-(3-propan-2-ylpyrazol-1-yl)phenyl]methanone]"
9,63.1 to 251,"CN1CCN(C(=O)c2ccc(NC(=O)C3CC3)cc2N2CCC3(COC3)C2)C(c2cccc(Cl)c2)C1 (stereo not drawn) [Example 212, N-[4-[2-(3-chlorophenyl)-4-methylpiperazine-1-carbonyl]-3-(2-oxa-7-azaspiro[3.4]octan-7-yl)phenyl]cyclopropanecarboxamide]"
10,≤ 50.1,"Cc1nnc(-c2ccc(C(=O)N3CCC4(CC3)CC4)c(-n3ccc(C(F)(F)F)n3)c2)[nH]1 [Example 214, 6-azaspiro[2.5]octan-6-yl-[4-(5-methyl-4H-1,2,4-triazol-3-yl)-2-[3-(trifluoromethyl)pyrazol-1-yl]phenyl]methanone]"
11,63.1 to 251,"CS(=O)(=O)N1CCN(C(=O)c2ccc(NC(=O)C3CC3)cc2N2CCCC2)C(c2ccccc2)C1 (stereo not drawn) [Example 215, N-[4-(4-methylsulfonyl-2-phenylpiperazine-1-carbonyl)-3-pyrrolidin-1-ylphenyl]cyclopropanecarboxamide]"
12,63.1 to 251,"CN(C)C(=O)N1CCN(C(=O)c2ccc(NC(=O)C3CC3)cc2N2CCCC2)C(c2ccccc2)C1 (stereo not drawn) [Example 216, 4-[4-(cyclopropanecarbonylamino)-2-pyrrolidin-1-ylbenzoyl]-N,N-dimethyl-3-phenylpiperazine-1-carboxamide]"
13,316 to 1000,"CNC(=O)N1CCN(C(=O)c2ccc(NC(=O)C3CC3)cc2N2CCCC2)C(c2ccccc2)C1 (stereo not drawn) [Example 217, 4-[4-(cyclopropanecarbonylamino)-2-pyrrolidin-1-ylbenzoyl]-N-methyl-3-phenylpiperazine-1-carboxamide]"
14,1260 to 6310,"CS(=O)(=O)C1CCN(C(=O)c2ccc(NC(=O)C3CC3)cc2N2CCCC2)CC1 [Example 218, N-[4-(4-methylsulfonylpiperidine-1-carbonyl)-3-pyrrolidin-1-ylphenyl]cyclopropanecarboxamide]"
15,63.1 to 251,"O=C(Nc1ccc(C(=O)N2CCC3(CC2)COC3)c(N2CCCC2)c1)C1CC1 [Example 219, N-[4-(2-oxa-7-azaspiro[3.5]nonane-7-carbonyl)-3-pyrrolidin-1-ylphenyl]cyclopropanecarboxamide]"
16,63.1 to 251,"O=C(Nc1ccc(C(=O)N2CCC3(CC2)CC3)c(N2CCCC2)c1)C1CC1 [Example 220, N-[4-(6-azaspiro[2.5]octane-6-carbonyl)-3-pyrrolidin-1-ylphenyl]cyclopropanecarboxamide]"

row,Structure (SMILES),Ki [nM]
1,"O=C(Nc1ccc(C(=O)N2CCS(=O)(=O)CC2)c(N2CC3CC(C3)C2)c1)C1CC1 [Example 195, N-[3-(3-azabicyclo[3.1.1]heptan-3-yl)-4-(1,1-dioxo-1,4-thiazinane-4-carbonyl)phenyl]cyclopropanecarboxamide]",63.1 to 251
